Test results as given in patent US6455541B1, “Suppression, by 5-lipoxygenase inhibitors, of bone resorption” (Board of Regents, The University of Texas System, priority 1994, dated 2002).
“And” between values parts separate entries of the source, which are not always exact repeats. Identical values can stand only once.

What was measured:
C433 cells = assay: Production of osteoclast-stimulating activity by C433 cells (conditioned medium bioassayed for TRAP in avian osteoclasts); type: cell-based, human; settings: flurbiprofen 10^−5 M; indomethacin 10^−6 M; nordihydroguaiaretic acid 10^−6, 10^−5 or 10^−4 M
Protocol: FIG. 3A, FIG. 3B, FIG. 3C and FIG. 3D. Chemical characterization of activity. FIG. 3A. C433-conditioned medium was treated with ultraviolet-light (UV) for 24 h or placed in a boiling water bath (100° C.) for 15 min and bioassayed. FIG. 3B. amino peptidase M (A), carboxypeptidase (C), or Pronase-CB (P) were incubated in the presence of C433-conditioned medium for 12 h at 37° C. FIG. 3C. […] The resultant conditioned medium was bioassayed for activity. FIG. 3D. […] Conditioned medium was bioassayed for induction of TRAP activity in avian osteoclasts.
C433 cells were grown in 10% fetal bovine serum (Whittaker, Walkersville, Md.) 50% RPMI, 50% McCoys (Flow, McLean, Va.) until a density of 10^4 cells/ml was obtained, at which time the cells were harvested, washed, and placed in serum-free DMEM plus 10^−8 M, 1,25-(OH)2D3 for 48 h before harvest of conditioned medium. […] This conditioned medium was applied to a prewetted C18 Sep-Pak (Millipore, Waters, Milford, Mass.), and bound material was extracted using ethyl acetate. This material was dried under nitrogen and resuspended in water, it acetic acid and analyzed by high pressure measure liquid chromatography (HPLC) (Waters, Milford, Mass.) applied to a C8 semipreparative 25 cm×10 mm reverse phase column (Keystone Scientific, Inc., Bellefonte, Pa.) at 2 ml/min. The gradient was 0-100% methanol, 1% acetic acid over 60 min with 6-ml fractions collected. The fractions were dried under nitrogen, and those fractions to be assayed for osteoclast stimulating activity were stabilized with 20 μl of 10% bovine serum albumin. Fractions to be used for gas chromatography-mass spectrometric analysis were prepared for derivatization.

neonatal mouse calvariae = assay: Neonatal mouse (murine) calvarial assay, 45Ca release; type: cell-based; settings: for 45Ca release, Factor alone (Table II): IL-1 5 × 10^−10M, TNF 2 × 10^−10M, Lymphotoxin 5 × 10^−9M, PTH 4 ng/ml
Protocol: The assay was performed as described by Gowen et al. (1983). Timed pregnant mice were injected with ^45Ca 2 days before parturition. Half-calvaria were removed from the 1-2-day-old pups and preincubated for 24 h in BGJb medium at 37° C. in a humidified atmosphere of 5% CO2 before transfer to fresh media with or without test substances for 48 h. The bones were incubated for a further 72 h and media and bones collected. Bone-resorbing activity was expressed as the percentage of the total ^45Ca released into the medium.

[1] = test system: isolated avian osteoclasts; assay: TRAP activity in isolated avian osteoclasts; type: cell-based, Gallus domesticus; settings: 10^−8 M stimulates suboptimally
Protocol: Avian osteoclasts were isolated from medullary bone of laying White Leghorn hens Gallus domesticus (Pioneer Animal Supply, Kingswheel, Ohio) as described previously by Zambonin-Zallone and Teti (1981). In brief, bone marrow suspensions from the medullary bone of femora were filtered through Nytex cloth (110 μm, t'etko, Elmsford, N.Y.), centrifuged for 5 min at 1200 rpm, and the cell pellet resuspended in 0.2% NaCl for 3 min to lyse erythrocytes. After layering the cells on 100% fetal bovine serum for 1 h, sedimented cells were further filtered through Nytex filters (55 μm). Cells were harvested, resuspended in α-minimal Eagle's medium (GIBCO) containing 10 fetal bovine serum, with penicillin (100 units/ml), streptomycin (100 μg/ml), and Ara-C, to inhibit proliferation of nonosteoclastic cells. Cells were plated in 24- or 48-well plates (Costar, Cambridge, Mass.) at 1×10^4 cells/well and incubated at 37° C. in 10% CO2 humidified air for 48 h, after which they were washed to remove nonadherent cells. When matured osteoclasts were observed experiments were begun and terminated within 48 h.
Osteoclast TRAP activity was measured using fluorescence spectroscopy as described by Chambers et al. (1987) with minor modifications. In brief, media from osteoclast cultures were harvested and stored at −70° C. until ready for assay.
The cells were washed with phosphate-buffered saline and harvested in 0.5 ml of Triton X-100 (0.05%, w/v). Aliquots of media or lysate 30 μl) were incubated with 170 μl of 2 mM methylumbelliferyl phosphate, pH 5.0, in 0.48 M acetate buffer (0.48 M sodium acetate, 0.48 M acetic acid, pH 5.0) and 30 mM tartaric acid. Samples were incubated for 30 min at 37° C. and the reaction terminated with 100 μl of stop solution containing 50 mM glycine, 50 mM EDTA, pH 10.4. Fluorescence was measured at excitation 360 nm and emission 448 nm using a fluorimeter (Fluoroskan, Flow Instruments). Enzyme activity was expressed as micromoles of methylumbelliferyl phosphate hydrolyzed/min/μg of protein and the protein content measured by the technique of Lowry et al. (1951).

isolated rat osteoclasts = assay: Disaggregated rat osteoclast pit formation assay on sperm whale dentine; type: cell-based
Protocol: Quantitation of the effects of isolated osteoclasts on calcified matrices was determined using minor modifications of the disaggregated osteoclast resorption assay as described by Boyde et al. (1984). Sperm whale dentine (0.25×7×7 mm) was prepared using a Buehler low speed diamond saw (Buehler, Lake Bluff, Ill.) followed by sonication (15 min) in several changes of distilled water. Slices were sterilized using ultraviolet light.
Neonatal Sprague-Dawley rats (2-3 days) were sacrificed by decapitation, the femurs and tibias were removed, scraped free of adherent tissue, and trimmed free of the epiphyses. The bones from one litter were combined and quickly minced using a scalpel blade in 2 ml of 199 medium and then vigorously mixed with a pipette in an 8-ml tube, allowed to settle for 10 s, and then 100 μl of the suspension was added to each well for a total of 16 wells in a 48-well microtiter plate containing sperm whale dentine (approximately four neonates are used per 16 wells). The cells were incubated at 37° C. for 30 min at which time the dentine was removed, washed in media, and placed in a fresh 48-well plate containing 250 μl of test medium.
Osteoclasts were stained for TRAP and counted and then pit numbers were counted following toluidine blue (0.1% w/v) staining by light microscopy. The plan area of matrix resorbed was quantitated using a computer-assisted morphometric program on a Bioquant System IV analysis system (R & M Biometrics, Nashville, Tenn.).
Quantitation of the effects of isolated neonatal rat osteoclasts on calcified matrices was determined using minor modifications of the disaggregated osteoclast resorption assay as described by Boyde et al (1984). Briefly rat osteoclasts isolated as described by Chambers et al. (1983) were dispersed on prewetted (AMEM plus 5% FBS) slices of sperm whale dentine. Cultures were performed in 48 well-microtiter plates in humidified air (10% CO2) at 37° C. in αMEM medium (one slice/well in 200 μl medium). Numbers of osteoclasts and resorption lacunae were quantitated as described above for the avian osteoclasts.

[2] = 1,25D3 10^−10M + MK886 2.5 μg/ml
[3] = IL-1 1 × 10^−10M + MK886 2.5 μg/ml

CC(C(=O)O)c1ccc(-c2ccccc2)c(F)c1 (centres unmarked) [Flurbiprofen, flurbiprofen]
effect on production of C433 activity (C433 cells): no significant effects

CCCCC/C=C\C[C@@H](O)/C=C/C=C/C=C\[C@@H](O)CCCC(=O)O [LTB4]
stimulation of bone resorption in neonatal mouse calvariae (in words) (neonatal mouse calvariae): found to stimulate osteoclastic bone resorption
concentration showing statistically significant resorption stimulation (neonatal mouse calvariae; dose response, FIG. 8C): 10^−8 to 10^−6 M

CCCCC/C=C\C\C=C/C=C/C=C/[C@@H](SC[C@H](N)C(=O)NCC(=O)O)[C@@H](O)CCCC(=O)O [LTD4, leukotriene D4]
concentration of optimal stimulation of TRAP activity [1]: 10^−10 M

CCCCC/C=C\C\C=C/C=C/C=C/[C@@H](SC[C@H](N)C(=O)O)[C@@H](O)CCCC(=O)O [LTE4, leukotriene E4]
stimulation of pit formation (isolated rat osteoclasts; 10^−10 M): stimulated

CC(C)c1ccc2c(c1)c(SC(C)(C)C)c(CC(C)(C)C(=O)O)n2Cc1ccc(Cl)cc1 [MK886]
inhibition of 1,25(OH)2 vitamin D3-induced bone resorption (in words) (neonatal mouse calvariae; 1,25(OH)2 vitamin D3 as factor): significantly inhibited
45Ca release, factor + MK886 (neonatal mouse calvariae; [2]): 32.1%
% Inhibition (neonatal mouse calvariae; [2]): 23.4%
% Inhibition (neonatal mouse calvariae; AAY4 LPS 25 μg/ml + MK886): 20.9%
Ca^45 Release, LPS + MK886 (neonatal mouse calvariae; AAY4 LPS 25 μg/ml + MK886 (concentration not given)): 22.6%
inhibition of LPS-induced bone resorption (in words) (neonatal mouse calvariae; AaY4 LPS and/or WR14 LPS): only mildly inhibited
45Ca release, factor + MK886 (neonatal mouse calvariae; [3]): 34.9%
% Inhibition (neonatal mouse calvariae; [3]): 23.0%
inhibition of IL-1-induced bone resorption (in words) (neonatal mouse calvariae; IL-1 as factor): significant inhibition of Interleukin-1 induced bone resorption was not noted
45Ca release, MK886 alone (neonatal mouse calvariae; MK886 2.5 μg/ml, no factor): 9.6% and 14.2%
% Inhibition (neonatal mouse calvariae; WR14 LPS 50 ng/ml + MK886): 8.2%
Ca^45 Release, LPS + MK886 (neonatal mouse calvariae; WR14 LPS 50 ng/ml + MK886 (concentration not given)): 32.8%
inhibition of PTH and PTHrP-induced bone resorption (isolated rat osteoclasts; NDGA 10^−6M, MK886 1 μg/ml, ZM 230,487 10 ng/ml, 20 hours): inhibition of the bone resorption was seen
order of inhibitory effectiveness (isolated rat osteoclasts; PTH and PTHrP-induced bone resorption, NDGA 10^−6M, MK886 1 μg/ml, ZM 230,487 10 ng/ml): ZM230487>MK886>NDGA

COc1ccc2c(c1)c(CC(=O)O)c(C)n2C(=O)c1ccc(Cl)cc1 [indomethacin]
effect on production of C433 activity (C433 cells): no significant effects

IL-1: interleukin-1, bone resorbing factor
45Ca release, factor alone (Table IV) (neonatal mouse calvariae; 1,25D3 10^−10M, IL-1 1 × 10^−10M): 38.9%
45Ca release, Factor alone (Table II) (neonatal mouse calvariae; 1,25D3 10^−10M): 27.7% and 31.2%
45Ca release, Factor alone (Table VII) (neonatal mouse calvariae; IL-1β 5 × 10^−10M, TNF 5 × 10^−10M, LPS WR14 50 ng/ml): 32.0%

B1: PTH: parathyroid hormone (protein, UniProt P01270 32-115, looked up)
Parathyroid hormone: SVSEIQLMHNLGKHLNSMERVEWLRKKLQDVHNFVALGAPLAPRDAGSQRPRKKEDNVLVESHEKSLGEADKADVNVLTKAKSQ
modifications: Parathyroid hormone
45Ca release, Factor alone (Table II) (neonatal mouse calvariae; 1,25D3 10^−10M): 37.0% and 39.9% and 29.8%
% Total Calcium Released, PTH alone (Table VI) (neonatal mouse calvariae; PTH 10 ng/ml): 30.5 ± 2.4%

B2: Lymphotoxin: bone resorbing factor (protein, UniProt P01374 35-205, looked up)
Lymphotoxin-alpha: LPGVGLTPSAAQTARQHPKMHLAHSTLKPAAHLIGDPSKQNSLLWRANTDRAFLQDGFSLSNNSLLVPTSGIYFVYSQVVFSGKAYSPKATSSPLYLAHEVQLFSSQYPFHVPLLSSQKMVYPGLQEPWLHSMYHGAAFQLTQGDQLSTHTDGIPHLVLSPSTVFFGAFAL
45Ca release, Factor alone (Table II) (neonatal mouse calvariae; 1,25D3 10^−10M): 35.0% and 42.8%
